This passage reports MIC results from patent US20250243245A1 (priority 2022, published 2025).

Where a SMILES comes first, the peptide text is derived from it.

For this experiment, the system named is E. coli strain BL21. The conditions noted are these: BL21, 24 h.
Turning to `CC[C@H](C)[C@H](NC(=O)[C@H](CCCNC(=N)N)NC(=O)[C@H](CCCNC(=N)N)NC(=O)[C@H](CCC(N)=O)NC(=O)[C@H](Cc1c[nH]c2ccccc12)NC(=O)[C@H](Cc1ccccc1)NC(=O)CNC(=O)[C@@H]1CCCN1C(=O)[C@H](CO)NC(=O)CNC(=O)[C@H](CCCCN)NC(=O)[C@H](CC(C)C)NC(=O)[C@H](CO)NC(=O)[C@H](CCCCN)NC(=O)[C@H](CC(C)C)NC(=O)[C@@H](NC(=O)[C@H](CCC(=O)O)NC(=O)[C@H](CC(C)C)NC(=O)[C@H](CC(C)C)NC(=O)[C@H](CCCCN)NC(=O)[C@H](CCC(N)=O)NC(=O)[C@@H]1CCCN1C(=O)[C@H](CC(C)C)NC(=O)[C@H](CCCCN)NC(=O)[C@@H](N)CCCCN)[C@@H](C)CC)C(=O)N[C@@H](CCCNC(=N)N)C(=O)N[C@@H](CCCNC(=N)N)C(=O)N[C@@H](Cc1c[nH]c2ccccc12)C(=O)N[C@@H](CCCNC(=N)N)C(=O)N[C@@H](CCCNC(=N)N)C(=O)O` [UGK-21], the MIC lay in the range of 1.25 to 2.5 mM. For `CSCC[C@H](NC(=O)[C@H](Cc1c[nH]c2ccccc12)NC(=O)[C@H](CCC(N)=O)NC(=O)[C@H](Cc1c[nH]c2ccccc12)NC(=O)[C@H](Cc1ccccc1)NC(=O)[C@H](CCCNC(=N)N)NC(=O)[C@H](CCCNC(=N)N)NC(=O)[C@H](CCC(=O)O)NC(=O)[C@H](CC(C)C)NC(=O)[C@@H]1CCCN1C(=O)[C@H](CO)NC(=O)[C@H](CC(=O)O)NC(=O)[C@H](CC(C)C)NC(=O)[C@H](CC(C)C)NC(=O)[C@H](CCCNC(=N)N)NC(=O)[C@H](CCCNC(=N)N)NC(=O)[C@@H](NC(=O)[C@H](CC(C)C)NC(=O)[C@H](CCC(=O)O)NC(=O)[C@H](CCC(N)=O)NC(=O)[C@H](CC(C)C)NC(=O)[C@H](CCC(N)=O)NC(=O)[C@H](CCC(=O)O)NC(=O)[C@H](CO)NC(=O)CNC(=O)[C@H](CCCNC(=N)N)NC(=O)[C@@H]1CCCN1C(=O)[C@@H](N)CCCCN)[C@@H](C)O)C(=O)N[C@@H](CCCNC(=N)N)C(=O)N[C@@H](CCCNC(=N)N)C(=O)O` [UGK-37, KPRGSEQLQELTRRLLDSPLERRFWOWMRR] (H-KPRGSEQLQELTRRLLDSPLERRFWQWMRR-OH; N-terminus and C-terminus assumed) the value was greater than 20 mM; for `CC[C@H](C)[C@H](N)C(=O)N[C@@H](CCC(=O)O)C(=O)N[C@@H](CCCNC(=N)N)C(=O)N[C@@H](CO)C(=O)N[C@@H](CCCNC(=N)N)C(=O)N[C@@H](CC(N)=O)C(=O)N[C@@H](CC(C)C)C(=O)N[C@@H](CC(=O)O)C(=O)N[C@@H](Cc1c[nH]c2ccccc12)C(=O)N[C@@H](Cc1ccc(O)cc1)C(=O)N[C@@H](CCCCN)C(=O)NCC(=O)N1CCC[C@H]1C(=O)N[C@H](C(=O)N[C@@H](CC(C)C)C(=O)N[C@@H](CC(C)C)C(=O)N[C@@H](CC(=O)O)C(=O)N[C@@H](C)C(=O)N[C@@H](CC(C)C)C(=O)N[C@@H](CCCCN)C(=O)N[C@@H](CC(N)=O)C(=O)N[C@@H](CC(C)C)C(=O)N[C@@H](CC(N)=O)C(=O)N[C@@H](CCC(=O)O)C(=O)NCC(=O)N[C@@H](CCCCN)C(=O)N[C@@H](CCCNC(=N)N)C(=O)N1CCC[C@H]1C(=O)N[C@@H](CO)C(=O)N[C@@H](CC(=O)O)C(=O)N[C@@H](CCCCN)C(=O)O)[C@@H](C)O` [Peptide I31LB] (H-IERSRNLDWYKGPTLLDALKNLNEGKRPSDK-OH; N-terminus and C-terminus assumed), greater than 20 mM.

For the compound `CC[C@H](C)[C@H](NC(=O)[C@H](CCCNC(=N)N)NC(=O)[C@H](CCCNC(=N)N)NC(=O)[C@H](CCC(N)=O)NC(=O)[C@H](Cc1c[nH]c2ccccc12)NC(=O)[C@H](Cc1ccccc1)NC(=O)CNC(=O)[C@@H]1CCCN1C(=O)[C@H](CO)NC(=O)CNC(=O)[C@H](Cc1ccc(O)cc1)NC(=O)CNC(=O)[C@H](CO)NC(=O)CNC(=O)[C@H](CCCNC(=N)N)NC(=O)[C@H](Cc1c[nH]c2ccccc12)NC(=O)[C@H](Cc1c[nH]c2ccccc12)NC(=O)[C@H](CCCNC(=N)N)NC(=O)[C@H](Cc1c[nH]c2ccccc12)NC(=O)[C@H](Cc1c[nH]c2ccccc12)NC(=O)[C@H](CCCNC(=N)N)NC(=O)[C@@H](N)CCCNC(=N)N)C(=O)N[C@@H](CCCNC(=N)N)C(=O)N[C@@H](CCCNC(=N)N)C(=O)N[C@@H](Cc1c[nH]c2ccccc12)C(=O)N[C@@H](CCCNC(=N)N)C(=O)N[C@@H](CCCNC(=N)N)C(=O)O` [Peptide 27P-1] (H-RRWWRWWRGSGYGSPGFWQRRIRRWRR-OH; N-terminus and C-terminus assumed), the MIC is greater than 20 mM.

Compound `CC[C@H](C)[C@H](NC(=O)[C@H](CCCCN)NC(=O)[C@H](CC(C)C)NC(=O)[C@@H](NC(=O)[C@H](CCCCN)NC(=O)[C@H](CCCCN)NC(=O)[C@@H](NC(=O)[C@H](CC(C)C)NC(=O)[C@H](CCCCN)NC(=O)[C@@H](N)CCCCN)[C@@H](C)CC)[C@@H](C)CC)C(=O)N[C@@H](CC(C)C)C(=O)NCC(=O)N[C@@H](CO)C(=O)NCC(=O)N[C@@H](Cc1ccc(O)cc1)C(=O)NCC(=O)N[C@@H](CO)C(=O)N1CCC[C@H]1C(=O)NCC(=O)N[C@@H](Cc1ccccc1)C(=O)N[C@@H](Cc1c[nH]c2ccccc12)C(=O)N[C@@H](CCC(N)=O)C(=O)N[C@@H](CCCNC(=N)N)C(=O)N[C@@H](CCCNC(=N)N)C(=O)N[C@H](C(=O)N[C@@H](CCCNC(=N)N)C(=O)N[C@@H](CCCNC(=N)N)C(=O)N[C@@H](Cc1c[nH]c2ccccc12)C(=O)N[C@@H](CCCNC(=N)N)C(=O)N[C@@H](CCCNC(=N)N)C(=O)O)[C@@H](C)CC` [Peptide 30P-1] gave a minimal inhibitory concentration (MIC) of 1.25 to 2.5 mM. For the compound `CC(C)C[C@H](NC(=O)[C@H](CO)NC(=O)[C@H](CCCCN)NC(=O)[C@H](CC(C)C)NC(=O)[C@H](CCCCN)NC(=O)[C@H](CCC(N)=O)NC(=O)[C@H](CC(C)C)NC(=O)[C@H](CC(C)C)NC(=O)[C@H](CCC(=O)O)NC(=O)[C@H](CCC(=O)O)NC(=O)[C@H](CC(C)C)NC(=O)[C@H](CCCNC(=N)N)NC(=O)[C@H](CCCCN)NC(=O)[C@@H]1CCCN1C(=O)[C@@H](N)CC(C)C)C(=O)N[C@@H](CCC(=O)O)C(=O)NCC(=O)N[C@@H](CO)C(=O)N[C@@H](CCCCN)C(=O)N[C@@H](C)C(=O)N[C@@H](Cc1c[nH]cn1)C(=O)N[C@@H](CCC(=O)O)C(=O)N[C@@H](CCCCN)C(=O)N[C@@H](CC(C)C)C(=O)N[C@@H](Cc1c[nH]cn1)C(=O)N[C@@H](CC(=O)O)C(=O)N[C@@H](Cc1c[nH]c2ccccc12)C(=O)N[C@H](C(=O)N[C@@H](CCCNC(=N)N)C(=O)N[C@@H](CCCCN)C(=O)O)[C@@H](C)O` [UGK-45] (H-LPKRLEELLQKLKSLEGSKAHEKLHDWTRK-OH; N-terminus and C-terminus assumed), the minimal inhibitory concentration (MIC) is listed as greater than 20 mM. For `CC[C@H](C)[C@H](NC(=O)[C@H](CCCNC(=N)N)NC(=O)[C@H](CCCNC(=N)N)NC(=O)[C@H](CCC(N)=O)NC(=O)[C@H](Cc1c[nH]c2ccccc12)NC(=O)[C@@H](N)Cc1ccccc1)C(=O)N[C@@H](CCCNC(=N)N)C(=O)N[C@@H](CCCNC(=N)N)C(=O)N[C@@H](Cc1c[nH]c2ccccc12)C(=O)N[C@@H](CCCNC(=N)N)C(=O)N[C@@H](CCCNC(=N)N)C(=O)NCC(=O)N[C@@H](CO)C(=O)NCC(=O)N[C@@H](Cc1ccc(O)cc1)C(=O)NCC(=O)N[C@@H](CO)C(=O)N1CCC[C@H]1C(=O)NCC(=O)N[C@@H](CCCNC(=N)N)C(=O)N[C@@H](CCCNC(=N)N)C(=O)N[C@@H](Cc1c[nH]c2ccccc12)C(=O)N[C@@H](Cc1c[nH]c2ccccc12)C(=O)N[C@@H](CCCNC(=N)N)C(=O)N[C@@H](Cc1c[nH]c2ccccc12)C(=O)N[C@@H](Cc1c[nH]c2ccccc12)C(=O)N[C@@H](CCCNC(=N)N)C(=O)O` [Peptide 27P-2] (H-FWQRRIRRWRRGSGYGSPGRRWWRWWR-OH; N-terminus and C-terminus assumed) the value was 5 to 10 mM; for `CC(C)C[C@H](NC(=O)[C@H](CO)NC(=O)[C@H](CCCCN)NC(=O)[C@H](CC(C)C)NC(=O)[C@H](CCCCN)NC(=O)[C@H](CCC(=O)O)NC(=O)[C@H](CC(C)C)NC(=O)[C@H](CC(C)C)NC(=O)[C@H](CCC(=O)O)NC(=O)[C@H](CCC(=O)O)NC(=O)[C@H](CC(C)C)NC(=O)[C@H](CCCNC(=N)N)NC(=O)[C@H](CCCCN)NC(=O)[C@@H]1CCCN1C(=O)[C@@H](N)CCC(N)=O)C(=O)N[C@@H](CCC(=O)O)C(=O)NCC(=O)N[C@@H](CO)C(=O)N[C@@H](CCCCN)C(=O)N[C@@H](C)C(=O)N[C@@H](Cc1c[nH]cn1)C(=O)N[C@@H](CCC(=O)O)C(=O)N[C@@H](CCCCN)C(=O)N[C@@H](CC(C)C)C(=O)N[C@@H](Cc1c[nH]cn1)C(=O)N[C@@H](CC(=O)O)C(=O)N[C@@H](Cc1c[nH]c2ccccc12)C(=O)N[C@H](C(=O)N[C@@H](CCCNC(=N)N)C(=O)N[C@@H](CCCCN)C(=O)O)[C@@H](C)O` [UGK-49] (H-QPKRLEELLEKLKSLEGSKAHEKLHDWTRK-OH; N-terminus and C-terminus assumed), greater than 20 mM. With `CC[C@H](C)[C@H](NC(=O)[C@H](CC(N)=O)NC(=O)[C@H](CCCNC(=N)N)NC(=O)[C@H](CCC(N)=O)NC(=O)[C@H](Cc1c[nH]c2ccccc12)NC(=O)[C@H](CCC(N)=O)NC(=O)[C@@H](N)Cc1ccccc1)C(=O)N[C@@H](CCCNC(=N)N)C(=O)N[C@@H](CCCCN)C(=O)N[C@H](C(=O)N[C@@H](CCCNC(=N)N)C(=O)O)C(C)C` [Peptide 11P-2, FQWORNIRKVR, reference compound] (H-FQWQRNIRKVR-OH), the MIC is greater than 20 mM.

Consider `CSCC[C@H](NC(=O)[C@H](Cc1c[nH]c2ccccc12)NC(=O)[C@H](CCC(=O)O)NC(=O)[C@H](Cc1c[nH]c2ccccc12)NC(=O)[C@H](Cc1c[nH]c2ccccc12)NC(=O)[C@H](CCCNC(=N)N)NC(=O)[C@H](CCCNC(=N)N)NC(=O)[C@H](CCC(=O)O)NC(=O)[C@H](CC(C)C)NC(=O)[C@@H]1CCCN1C(=O)[C@H](CO)NC(=O)[C@H](CC(=O)O)NC(=O)[C@H](CC(C)C)NC(=O)[C@H](CC(C)C)NC(=O)[C@H](CCCNC(=N)N)NC(=O)[C@H](CCCNC(=N)N)NC(=O)[C@@H](NC(=O)[C@H](CC(C)C)NC(=O)[C@H](CCC(=O)O)NC(=O)[C@H](CCC(N)=O)NC(=O)[C@H](CC(C)C)NC(=O)[C@H](CCC(N)=O)NC(=O)[C@H](CCC(=O)O)NC(=O)[C@H](CO)NC(=O)CNC(=O)[C@H](CCCNC(=N)N)NC(=O)[C@@H]1CCCN1C(=O)[C@@H](N)CCCCN)[C@@H](C)O)C(=O)N[C@@H](CCCNC(=N)N)C(=O)N[C@@H](CCCNC(=N)N)C(=O)O` [UGK-29] (H-KPRGSEQLQELTRRLLDSPLERRWWEWMRR-OH; N-terminus and C-terminus assumed), for which the MIC is recorded as greater than 20 mM.
